# Results as given in article PMC7307930, “Stereoselective Activity of 1-Propargyl-4-styrylpiperidine-like Analogues That Can Discriminate between Monoamine Oxidase Isoforms A and B” (Journal of Medicinal Chemistry, 2020).
# Test system: Swiss mice
# Experiment: Tail suspension test
# Format: in vivo, mouse
# Conditions: ip 30 min before; 6, 67 at 3 and 10 mg/kg, 69 at 1, 3, 10, 30 mg/kg, imipramine 30 mg/kg
# Experimental: The antidepressant-like activity was screened with the widely used tail suspension test. At 30 min before the behavioral assays, the mice were treated with 6, 67, and 69 at 3 mg/kg and 10 mg/kg ip, with 69 also at 1 mg/kg and 30 mg/kg ip, or were injected with 0.9% saline as control. Imipramine (30 mg/kg ip) was used as the reference drug.
# (A) Effects of acute ip treatment with 6 (3, 10 mg/kg, n = 13, 9), 67 (3, 10 mg/kg, n = 6, 10), and 69 (1, 3, 10, 30 mg/kg, n = 8, 7, 8, 6) and imipramine (30 mg/kg, n = 8) in the tail suspension test. […] (B) Effects of acute ip treatment with 6 (3, 10 mg/kg, n = 8, 8), 67 (1, 3, 6 mg/kg; n = 5, 5, 5), and 69 (1, 3, 6 mg/kg, n = 10, 5, 5) on locomotor activity of the mice. […] (C) Effects of 10-day chronic ip treatment with 69 (0.3 mg/kg, daily; n = 10) in the tail suspension test. Data are mean values ± SEM of the immobility time, compared to control mice (n = 8): ∗∗, p < 0.01 (unpaired t-test). […]
# quality control sample every seven test samples. The absolute matrix effect was checked by comparing the analyte responses in the standard solutions to the samples spiked in the tissue incubation medium from the control experiment without the analyte, and a deviation of less than ±20% was deemed acceptable.
# 4.2.10In vitro radioligand binding assay
# Rats were humanely killed by decapitation and their brains were removed, washed and rapidly dissected on ice. Homogenisation was performed using a homogeniser (PRO Scientific Inc) at 30,000 rpm for 1 min. For 5-HT1A binding assays, the cortex tissues were homogenised in 30 volumes/weight ice-cold 50 mM Tris–HCl buffer (pH 7.4), and the homogenate was centrifuged at 40,000× g for 15 min at 0 °C to 4 °C. The resulting pellets were resuspended in 30 volumes/weight of the same buffer, and incubated at 37 °C for 20 min. The centrifugation step was repeated twice under the same conditions as described above, and the final pellets were resuspended in 30 volumes/weight 50 mM Tris–HCl buffer (pH 7.4), and stored at –80 […]
# For the [3H]-8-OH-DPAT binding assay (the 5-HT1A receptor binding assay), the membranes were thawed and resuspended in 50 mM Tris–HCl (pH 7.4) with 1 mM MnCl2, to a final protein concentration of 0.5 mg/mL. The incubation was carried out at 25 °C for 1 h in a final volume of 1 mL membrane suspension in the presence of the sample assayed and with 0.2 nM [3H]-8-OH-DPAT (170.2 Ci/mmol). Serotonin was used as the positive control. Non-specific binding was determined in parallel incubations in the presence of serotonin (10 μM).
# 4.2.11 Tail suspension test
# The tail suspension test was carried out according to the methodology proposed by Steru and co-workers.22 The mice were individually suspended by the tail from a metal hook (distance
row,Structure (SMILES),"immobility time, acute treatment"
1,"CN(C)CCCN1c2ccccc2CCc2ccccc21 [imipramine, reference compound]",significantly reduced

# Target: T1, 5-HT1A receptor (Rattus norvegicus, UniProt P19327)
# T1 construct: from tissue; host or cells: rat (male Wistar) brain cortex membranes
# T1 sequence (P19327 1-422): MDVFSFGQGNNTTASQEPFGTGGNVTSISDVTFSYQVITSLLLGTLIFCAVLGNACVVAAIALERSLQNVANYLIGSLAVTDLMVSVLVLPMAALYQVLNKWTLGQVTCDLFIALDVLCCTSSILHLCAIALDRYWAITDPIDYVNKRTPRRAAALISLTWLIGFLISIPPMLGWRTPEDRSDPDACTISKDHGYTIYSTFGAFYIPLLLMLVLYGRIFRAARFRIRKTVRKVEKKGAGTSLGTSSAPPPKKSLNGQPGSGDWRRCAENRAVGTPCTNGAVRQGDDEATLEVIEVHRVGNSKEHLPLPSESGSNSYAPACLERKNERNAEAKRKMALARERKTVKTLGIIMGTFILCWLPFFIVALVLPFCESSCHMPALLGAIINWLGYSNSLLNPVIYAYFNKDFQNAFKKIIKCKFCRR
# Experiment: [3H]-8-OH-DPAT radioligand binding assay, rat cortex membranes
# Conditions: [3H]-8-OH-DPAT binding, means ±SEM
row,Structure (SMILES),Ki
1,"C#CCN1CCC(CCc2ccc(C#N)cc2)CC1 [Compound 102, 4-(2-(1-(Prop-2-yn-1-yl)piperidin-4-yl)ethyl)benzonitrile]",8.6 ± 1.7 µM

# Same assay, conditions: read-out: Inhibition at 300 µM
row,Structure (SMILES),inhibition at 300 µM
1,"C#CCN1CCC(CCc2ccc(C#N)cc2)CC1 [Compound 102, 4-(2-(1-(Prop-2-yn-1-yl)piperidin-4-yl)ethyl)benzonitrile]",78%

# Test system: SH-SY5Y cells
# Experiment: MTS cytotoxicity assay
# Conditions: 24 h, 5 μM and 10 μM
row,Structure (SMILES),cytotoxic effects
1,"C#CCN1CCC(/C=C/c2ccc(F)cc2)CC1 [Compound 1, (E)-4-(4-Fluorostyryl)-1-(prop-2-yn-1-yl)piperidine]",no significant cytotoxic effects
2,"C#CCN1CCC(CCc2ccc(C(C)C)cc2)CC1 [Compound 97, 4-(4-Isopropylphenethyl)-1-(prop-2-yn-1-yl)piperidine]",no significant cytotoxic effects
3,"C#CCN1CCC(CCc2ccc(C#N)cc2)CC1 [Compound 102, 4-(2-(1-(Prop-2-yn-1-yl)piperidin-4-yl)ethyl)benzonitrile]",no significant cytotoxic effects

# Test system: not listed separately
# Experiment: Thermodynamic solubility in PBS
# Format: physicochemical
# Conditions: PBS (pH 7.4), 37 °C, 24 h, hydrochloride salts
row,Structure (SMILES),thermodynamic solubility
1,"C#CCN1CCC(CCc2ccc(C(C)C)cc2)CC1 [Compound 97, 4-(4-Isopropylphenethyl)-1-(prop-2-yn-1-yl)piperidine]",≥ 14.5 g/250 mL

# Target: T2, hMAO-A (Homo sapiens, UniProt P21397)
# T2 construct: purchased Sigma Aldrich; host or cells: baculovirus-infected insect cells (BTI-TN-5B1-4)
# T2 sequence (P21397 1-527): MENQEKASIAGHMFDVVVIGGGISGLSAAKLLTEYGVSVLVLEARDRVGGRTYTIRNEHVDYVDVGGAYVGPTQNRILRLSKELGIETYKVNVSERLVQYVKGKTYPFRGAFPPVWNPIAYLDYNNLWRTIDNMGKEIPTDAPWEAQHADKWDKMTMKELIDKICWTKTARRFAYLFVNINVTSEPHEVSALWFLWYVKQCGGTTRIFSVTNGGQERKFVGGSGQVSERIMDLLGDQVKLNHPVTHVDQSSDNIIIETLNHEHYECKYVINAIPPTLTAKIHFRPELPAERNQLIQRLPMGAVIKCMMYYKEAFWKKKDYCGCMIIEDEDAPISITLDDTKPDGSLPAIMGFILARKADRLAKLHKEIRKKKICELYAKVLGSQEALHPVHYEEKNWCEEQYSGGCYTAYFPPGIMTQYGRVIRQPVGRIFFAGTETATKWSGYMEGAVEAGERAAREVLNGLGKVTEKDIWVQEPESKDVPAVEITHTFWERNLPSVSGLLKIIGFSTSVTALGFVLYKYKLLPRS
# Experiment: hMAO-A inhibition, HRP–Amplex Red coupled fluorimetric assay
# Format: biochemical
# Conditions: supplement csv; RA at 100 micromolar
row,Structure (SMILES),IC50(MAO-A) class
1,"C#CCN1CCC(CCc2ccc(C(N)=O)cc2)CC1 [Compound 106, 4-(2-(1-(Prop-2-yn-1-yl)piperidin-4-yl)ethyl)benzamide]",na (na-not_active(RA_at_100micromolar>50%))
2,"C#CCN1CCC(/C=C/c2ccc(Br)cc2)CC1 [Compound 81, (E)-4-(4-Bromostyryl)-1-(prop-2-yn-1-yl)piperidine]",na (na-not_active(RA_at_100micromolar>50%))
3,"C#CCN1CCC(/C=C\c2ccc(C(F)(F)F)cc2)CC1 [Compound 83, (Z)-1-(Prop-2-yn-1-yl)-4-(4-(trifluoromethyl)styryl)piperidine]",na (na-not_active(RA_at_100micromolar>50%))
4,"C#CCN1CCCC(CCc2cc(F)c(F)cc2F)C1 (racemic) [Compound 24, (±)-3-(2,4,5-Trifluorophenethyl)-1-(prop-2-yn-1-yl)piperidine]",na (na-not_active(RA_at_100micromolar>50%))
5,"C#CCN1CCC(CCc2ccc(C)cc2)CC1 [Compound 96, 4-(4-Methylphenethyl)-1-(prop-2-yn-1-yl)piperidine]",na (na-not_active(RA_at_100micromolar>50%))
6,"C#CCN1CCC(/C=C/c2ccc(S(C)(=O)=O)cc2)CC1 [Compound 90, (E)-4-(4-(Methylsulfonyl)styryl)-1-(prop-2-yn-1-yl)piperidine]",na (na-not_active(RA_at_100micromolar>50%))
7,"C#CCN1CCC(/C=C\c2ccc(S(C)(=O)=O)cc2)CC1 [Compound 89, (Z)-4-(4-(Methylsulfonyl)styryl)-1-(prop-2-yn-1-yl)piperidine]",na (na-not_active(RA_at_100micromolar>50%))
8,"C#CCN1CCCC(/C=C/c2cc(F)c(F)cc2F)C1 (racemic) [Compound 20, (±)-(E)-1-(Prop-2-yn-1-yl)-3-(2,4,5-trifluorostyryl)piperidine]",na (na-not_active(RA_at_100micromolar>50%))
9,"C#CCN1CCC(CCc2ccc(Cl)cc2)CC1 [Compound 98, 4-(4-Chlorophenethyl)-1-(prop-2-yn-1-yl)piperidine]",na (na-not_active(RA_at_100micromolar>50%))
10,"C#CCN1CCCC(/C=C/c2ccc(F)cc2)C1 (racemic) [Compound 19, (±)-(E)-3-(4-Fluorostyryl)-1-(prop-2-yn-1-yl)piperidine]",na (na-not_active(RA_at_100micromolar>50%))
11,"C#CCN1CCC(/C=C\c2ccc(C)cc2)CC1 [Compound 75, (Z)-4-(4-Methylstyryl)-1-(prop-2-yn-1-yl)piperidine]",na (na-not_active(RA_at_100micromolar>50%))
12,"C#CCN1CCC(/C=C\c2ccc(C(N)=O)cc2)CC1 [Compound 104, (Z)-4-(2-(1-(Prop-2-yn-1-yl)piperidin-4-yl)vinyl)benzamide]",na (na-not_active(RA_at_100micromolar>50%))
13,"C#CCN1CCCC(CCc2ccc(F)cc2)C1 (racemic) [Compound 23, (±)-3-(4-Fluorophenethyl)-1-(prop-2-yn-1-yl)piperidine]",na (na-not_active(RA_at_100micromolar>50%))
14,"C#CCN1CCC(CCc2cccc(C(F)(F)F)c2)CC1 [Compound 101, 1-(Prop-2-yn-1-yl)-4-(3-(trifluoromethyl)phenethyl)piperidine]",na (na-not_active(RA_at_100micromolar>50%))
15,"C#CCN1CCC(CCc2ccc(F)cc2)CC1 [Compound 25, 4-(4-Fluorophenethyl)-1-(prop-2-yn-1-yl)piperidine]",na (na-not_active(RA_at_100micromolar>50%))
16,"C#CCN1CCC(/C=C/c2ccc(OC)cc2)CC1 [Compound 82, (E)-4-(4-Methoxystyryl)-1-(prop-2-yn-1-yl)piperidine]",na (na-not_active(RA_at_100micromolar>50%))
17,"C#CCN1CCC(CCc2ccc(OC)cc2)CC1 [Compound 99, 4-(4-Methoxyphenethyl)-1-(prop-2-yn-1-yl)piperidine]",na (na-not_active(RA_at_100micromolar>50%))
18,"C#CCN1CCC(/C=C/c2ccc(C(N)=O)cc2)CC1 [Compound 105, (E)-4-(2-(1-(Prop-2-yn-1-yl)piperidin-4-yl)vinyl)benzamide]",na (na-not_active(RA_at_100micromolar>50%))
19,"C#CCN1CCC(CCc2ccc(O)cc2)CC1 [Compound 107, 4-(2-(1-(Prop-2-yn-1-yl)piperidin-4-yl)ethyl)phenol]",na (na-not_active(RA_at_100micromolar>50%))
20,"C#CCN1CCC(/C=C/c2ccc(C)cc2)CC1 [Compound 76, (E)-4-(4-Methylstyryl)-1-(prop-2-yn-1-yl)piperidine]",na (na-not_active(RA_at_100micromolar>50%))
21,"C#CCN1CCC(CCc2cc(F)c(F)cc2F)CC1 [Compound 26, 1-(Prop-2-yn-1-yl)-4-(2,4,5-trifluorophenethyl)piperidine]",na (na-not_active(RA_at_100micromolar>50%))

# Test system: Swiss mice
# Experiment: Elevated plus maze test
# Format: in vivo, mouse
# Conditions: acute ip, 1 mg/kg
Structure (SMILES),Open arm entries (%),Time in centre (%),Time in open arms (%),Total arm entries
"CN1C(=O)CN=C(c2ccccc2)c2cc(Cl)ccc21 [Diazepam, reference compound]",29.9 ±3.2%,37.6 ±5.8%,22.3 ±3.1%,36.0 ±3.2
